Measured values as given in PMC2911475 (Journal of molecular biology, 2009).

Target: FcsSBP (Fucose Solute Binding Protein)
Experiment: isothermal titration calorimetry
Parameters: species or system Streptococcus pneumoniae
Details: 50 mM Tris HCl pH 7.5, 25 °C, one-site model

With `CC(=O)N[C@H]1[C@@H](O[C@H]2[C@@H](O)[C@@H](CO)OC(O)[C@@H]2O[C@@H]2O[C@@H](C)[C@@H](O)[C@@H](O)[C@@H]2O)O[C@H](CO)[C@H](O)[C@@H]1O` (some centres unmarked) [A-trisaccharide, GalNAcα1–3(Fucα1–2)Gal] the Ka (crystal structure of SeMet protein) was 1.01 (±0.16) × 10^6.

`C[C@@H]1O[C@@H](O[C@H]2C(O)O[C@H](CO)[C@H](O)[C@@H]2O[C@H]2O[C@H](CO)[C@H](O)[C@H](O)[C@H]2O)[C@@H](O)[C@H](O)[C@@H]1O` (some centres unmarked) [B-trisaccharide, Galα1–3(Fucα1–2)Gal] was tested, and the Ka was 1.15 (±0.27) × 10^6.
